The values below come from patent publication US10870629B2, “18F-labelled compound for prostate cancer diagnosis, and use thereof” (FUTURECHEM CO., LTD., priority 2017, dated 2020).

One data set addresses T1, PSMA protein (Homo sapiens, UniProt Q04609).
T1 construct: host or cells: 22RV1 human prostate cancer cells
Briefly: Measurement of binding capacity: competition with [125I]15 on 22RV1 cells. Particulars: for IC50: [125I]15 0.1 nM, 37° C., 2 hours, read-out: IC50 (Mean ± SD). Here is the method:
RPMI1640 supplemented with 1% BSA (bovine serum albumin) was used as a buffer solution.
[^125I]15 (0.1 nM) was added to a vessel containing 22RV1 cells (5×10^4), to which [^18F]1-1 to [^18F]1-9 compounds were loaded at 9 concentrations ([…]), followed by stirring at 37° C. for 2 hours. Upon completion of the stirring, the vessel was washed with 2 mL of PBS solution three times, and then the remaining radioactivity and 50% inhibition concentration (nonlinear regression method) were measured using a gamma counter (2480 WIZARD2 Gamma Counter PerkinElmer Co., MA) and GraphPad Prism (GraphPad Software, Inc., CA).

In another data set the test system is PSMA+ PC-3 PIP tumors. Briefly: MicroPET/CT in mice transplanted with prostate cancer cell lines. The class given is in vivo, nude mouse. The following applies: for tumor binding (MicroPET/CT, FIG. 3): nude mouse with PC-3 PIP and PC-3 flu tumors; for excretion (MicroPET/CT, FIG. 3): nude mouse, intravenous, 60 minutes imaging.
A further data set has as its system PC-3 PIP. Briefly: Measurement of cellular internalization. The class given is cell-based, human. The source says: Then, the membrane protein and the cytoplasmic protein were separated by using Mem-PER Plus Membrane Protein Extraction Kit and NE-PER Nuclear and Cytoplasmic Extraction Kit (ThermoFisher Scientific). The internalization rate (%) was confirmed by obtaining the radioactivity ratio in the cytoplasmic protein to the total radioactivity.

Another data set has as its system PSMA+ PC-3 PIP tumor. Briefly: Biodistribution test with prostate cancer model mouse.
Setting [1] is: 0.5 h after tail vein injection.

T1 sequence (Q04609 whole entry): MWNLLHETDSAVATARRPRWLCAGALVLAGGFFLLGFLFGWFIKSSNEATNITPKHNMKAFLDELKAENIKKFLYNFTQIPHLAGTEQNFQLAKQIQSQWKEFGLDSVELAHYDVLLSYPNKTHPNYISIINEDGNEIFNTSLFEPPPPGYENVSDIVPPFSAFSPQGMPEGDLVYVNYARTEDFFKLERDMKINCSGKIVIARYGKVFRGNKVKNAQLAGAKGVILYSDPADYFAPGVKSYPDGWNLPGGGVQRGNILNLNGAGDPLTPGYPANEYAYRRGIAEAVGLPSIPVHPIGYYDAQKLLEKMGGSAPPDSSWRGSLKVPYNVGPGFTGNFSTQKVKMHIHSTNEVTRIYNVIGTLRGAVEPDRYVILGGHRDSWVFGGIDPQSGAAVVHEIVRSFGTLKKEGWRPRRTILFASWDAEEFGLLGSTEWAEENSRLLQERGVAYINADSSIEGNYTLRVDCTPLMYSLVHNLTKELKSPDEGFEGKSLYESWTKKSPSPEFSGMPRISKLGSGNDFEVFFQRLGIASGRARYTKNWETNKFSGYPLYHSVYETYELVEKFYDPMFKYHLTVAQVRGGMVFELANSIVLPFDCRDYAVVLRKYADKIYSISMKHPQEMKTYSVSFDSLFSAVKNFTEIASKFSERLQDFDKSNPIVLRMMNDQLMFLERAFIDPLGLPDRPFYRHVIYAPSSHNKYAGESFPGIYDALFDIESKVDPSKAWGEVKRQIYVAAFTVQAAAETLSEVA

With `O=C(O)CC[C@H](NC(=O)N[C@@H](CCCCNC(=O)Nc1ccc(I)cc1)C(=O)O)C(=O)O` [Comparative Example 1, reference compound], on PSMA protein, the IC50 is 30.7 ± 10.2 nM.
For `O=C(O)CC[C@H](NC(=O)N[C@@H](CCCCNC(=O)Nc1ccc([123I])cc1)C(=O)O)C(=O)O` [Comparative Example 1, reference compound], the “tumor binding (MicroPET/CT, FIG. 3)” value in the data set with PSMA+ PC-3 PIP tumors is “selectively bound to PSMA+PC-3 PIP tumors”. Further, the “excretion (MicroPET/CT, FIG. 3)” value with PSMA+ PC-3 PIP tumors was “rapidly excreted through the kidneys and bladder”. The “% Internalization ratio (Mean ± SD)” value in the data set with PC-3 PIP (30 min) came out at 91.27 ± 4.03%; in the data set on PC-3 PIP (60 min), 86.91 ± 8.13%; with PC-3 PIP (120 min) it was 94.31 ± 2.94%; in the data set on PC-3 PIP (240 min), 95.01 ± 2.58%.
Take `O=C(O)CC[C@H](NC(=O)N[C@@H](CCCCNC(=O)NCc1cn(CCF)nn1)C(=O)O)C(=O)O` [Example 7-1]: the IC50 at PSMA protein was 635 ± 263 nM.
On to `O=C(O)CC[C@H](NC(=O)N[C@@H](CCCCNC(=O)NCc1cn(CCOCC[18F])nn1)C(=O)O)C(=O)O` [Example 7-4], for which the IC50 at PSMA protein was 57 ± 33 nM.
Take `O=C(O)CC[C@H](NC(=O)N[C@@H](CCCCNC(=O)N(Cc1ccncc1)Cc1cn(CCOCC[18F])nn1)C(=O)O)C(=O)O` [Example 7-5]: the IC50 at PSMA protein was found to be 11.8 nM.
For the molecule `O=C(O)CC[C@H](NC(=O)N[C@@H](CCCCNC(=O)N(Cc1cn(CCOCC[18F])nn1)c1ccncc1)C(=O)O)C(=O)O` [Example 7-6], at PSMA protein, the “binding capacity higher than [18F]DCFPyL (Comparative Example 1)” value was “about 6 times”, the “binding to the PSMA protein (in words)” value is listed as “most strongly bound” and the half-inhibitory concentration (IC50) amounted to 5.08 nM. In addition, in the data set on PSMA+ PC-3 PIP tumors, the “tumor binding (MicroPET/CT, FIG. 3)” value is recorded as “selectively bound to PSMA+PC-3 PIP tumors”; the “excretion (MicroPET/CT, FIG. 3)” value is “rapidly excreted through the kidneys and bladder”. For the same molecule, in the data set on PC-3 PIP (30 min), the “% Internalization ratio (Mean ± SD)” value was found to be 93.30 ± 2.11%. For the same molecule, in the data set with PC-3 PIP (60 min), the “% Internalization ratio (Mean ± SD)” value is given as 91.89 ± 5.76%. In addition, in the data set on PC-3 PIP (120 min), the “% Internalization ratio (Mean ± SD)” value was 94.77 ± 2.92%. Moreover, the “% Internalization ratio (Mean ± SD)” value in the data set on PC-3 PIP (240 min) was 96.32 ± 1.08%. In the data set on PSMA+ PC-3 PIP tumor (setting [1]), this molecule yielded a PIP to blood of 14.05 ± 3.61, a PIP to liver of 5.64 ± 6.10, a PIP to muscle of 13.00 ± 4.97 and a PIP to spleen of 7.31 ± 3.34. Moreover, the PIP/flu in the data set on PSMA+ PC-3 PIP tumor (setting [1]) is given as 16.00 ± 5.68. In the data set with PSMA+ PC-3 PIP tumor (1 h after tail vein injection), this molecule displayed a PIP to blood of 30.30 ± 17.05, a PIP to liver of 9.93 ± 13.26, a PIP to muscle of 20.11 ± 14.99 and a PIP to spleen of 12.46 ± 16.18. In addition, the PIP/flu in the data set with PSMA+ PC-3 PIP tumor (1 h after tail vein injection) came out at 23.08 ± 14.91. In the data set on PSMA+ PC-3 PIP tumor (2 h after tail vein injection), the PIP to blood amounted to 36.90 ± 9.52, the PIP to liver is on record as 13.71 ± 12.60, the PIP to muscle is 38.11 ± 14.83 and the PIP to spleen was found to be 25.98 ± 8.66. For the same molecule, the PIP/flu with PSMA+ PC-3 PIP tumor (2 h after tail vein injection) is 33.32 ± 14.64. In the data set on PSMA+ PC-3 PIP tumor (4 h after tail vein injection), this molecule yielded a PIP to blood of 42.90 ± 18.49, a PIP to liver of 19.77 ± 11.81, a PIP to muscle of 45.39 ± 22.54 and a PIP to spleen of 32.51 ± 10.12. This molecule showed a PIP/flu in the data set with PSMA+ PC-3 PIP tumor (4 h after tail vein injection) of 35.69 ± 11.64.
